Measured values: US20230303506A1, “COMPOSITIONS AND METHODS FOR THE PREVENTION AND/OR TREATMENT OF MITOCHONDRIAL DISEASE, INCLUDING FRIEDREICH'S ATAXIA” (Stealth BioTherapeutics Inc., priority 2019, published 2023)
Entries after “also recorded” stand apart in the source; their conditions may differ. Where two headings read alike, the source gives them in different places.

Tests used:
HepG2 cells = test: Rotenone Oxygraph Assay (high-resolution respirometry of intact HepG2 cells); format: cell-based, human; conditions: for Rotenone Oxygraph Assay % Increase: Table 7; for Rotenone Oxygraph Assay % Increase / Percent increase in ATP (Rotenone Oxygraph Assay), Mean: 1 μM rotenone, compound 10 μM; for Percent increase in ATP (Rotenone Oxygraph Assay), Mean: Table 4, intact HepG2 cells, change in respiration rate
Procedure: The Oxygraph-2 k (O2k, OROBOROS INSTRUMENTS, Austria) was used for measurements of respiration of intact cells. The respirometry was performed in Dulbecco's Modified Eagle Medium (DMEM) high glucose without supplements. All experiments were performed at 37° C.
HepG2 cells (ATCC collection code HB-8065™) were cultured in 10 cm^2 culture dishes in DMEM high glucose medium supplemented with 10% fetal bovine serum (FBS) and 100 units/mL penicillin and 100 μg/mL streptomycin until approximately 90% confluence was reached. Immediately prior to performing the respirometric assay, the cells were washed with media without FBS, trypsinized and resuspended in DMEM high glucose without FBS.
The final concentration of intact cells in the O2k-chamber was 0.5·10^6/mL. After stabilization of respiration, the Complex I inhibitor, rotenone, at 1 μM final concentration was added to inhibit electron flux via Complex I. Then, compound to be tested was added at 10 μM final concentration, and the change in respiration rate of intact cells was monitored.

[1] = test system: HepG2 human hepatocarcinoma cells; test: Rotenone ATP Assay (Complex I Assay); format: cell-based; conditions: for activity in both the BSO Assay and the Rotenone ATP Assay, in words: BSO Assay and Rotenone ATP Assay taken together; for Complex I by-pass activity / restoring ATP production, in words: summary of rotenone assays; for EC50 / Rotenone ATP Assay EC50, nM: HepG2, 50 micromolar rotenone, 60 minutes
Procedure: This assay has been adapted from Haefeli R H, Erb M, Gemperli A C, Robay D, Courdier Fruh I, et al. (2011) NQO1-Dependent Redox Cycling of Idebenone: Effects on Cellular Redox Potential and Energy Levels. PLoS ONE 6(3): e17963. HepG2 human hepatocarcinoma cells were co-incubated with the electron transport chain Complex I toxin rotenone +/− compounds of interest and the corresponding effect on ATP synthesis was measured with a bioluminescent substrate.
In brief, HepG2 cells were plated at 25,000 cells per well in low glucose (1 gram/Liter) DMEM medium+10% fetal calf serum and incubated for 24 hours. The following day, the media was decanted and subsequently replaced with glucose free/serum free DMEM which has been supplemented with 50 micromolar rotenone and compound of interest. Serial dilutions of compound were prepared in 3× dilutions beginning at 25 micromolar. The cells were incubated for 60 minutes in a humidified tissue culture incubator. Following incubation, ATP levels were quantified via bioluminescent assay (Promega […] Glo Assay kit) and readings were captured on a standard microplate reader.
ATP bioluminescence is plotted versus the log of compound of interest and data were used to generate EC50 values. Curve fitting was performed using a sigmoidal dose response curve fit function (GraphPad Prism software).
Robustness of curve fit was assessed as a quality control measure, with an R squared value of at least 0.80 being required for a successful curve fit. Compounds of interest showing an increase in ATP bioluminescence relative to vehicle control were verified in an independent biological replicate of n=3 technical replicates per dose.
This assay is a direct measure of the ability of compounds of interest to restore ATP production under conditions of inhibition of Complex I of the mitochondrial electron transport chain. As the majority of ATP produced via the electron transport chain is thought to derive from Complex I activity, significant impairment in Complex I function has dire biological consequences. Of note, Complex I mutations are thought to drive pathophysiology in multiple mitochondrial diseases, including Leigh syndrome and Leber's Hereditary Optic Neuropathy (LHON), while diminished Complex I activity and the resultant attenuation of ATP production has been shown in neurodegenerative diseases, including Friedreich's Ataxia, Parkinson's Disease and Huntington's Disease.

[2] = test system: frataxin deficient fibroblasts (GM03665); test: cells; format: cell-based; conditions: for EC50: 10 mM BSO, 48 hrs, MTT
GM03665 cells = test: RSL3 Toxicity Assay (RSL3 Assay); format: cell-based, human
Procedure: In brief, GM03665 cells (Coriell Institute) were seeded in 96-well plates (Sarstedt) in DMEM cell culture media containing 10% Fetal Bovine serum and 1% Penicillin-Streptomycin (Pen-Strep) antibiotic mix at the amount of 2×10^4/mL (100 μL or 2×10^3 cells per well). Cells were left to rest overnight at 37° C. in a humidified atmosphere with 5% CO2 to allow attachment of the cells to the culture plate. Test compounds were prepared as DMSO stocks (10 mM) and were serially diluted in cell culture media to obtain 2× working solutions. Cell media was discarded and replaced by 50 μL of test compound solutions or cell media with vehicle for control wells. Within 15 minutes, 2× working solution (4 μM) of 1S,3R-RSL3 (CAS #1219810-16-8, Sigma-Aldrich) (diluted from 5 mM DMSO stock in cell culture media) was added. Final reaction volume was 100 μL and final DMSO concentration in reaction was kept below 0.2% (v/v) and equal in all wells. Final RSL3 concentration was 2 μM and test compound final concentrations in reaction were up to 1000 nM. After 24 hours of incubation cell viability was assessed by MTT test. MTT (Sigma-Aldrich) solution 1 mg/mL in 1×PBS (pH=7,4) was prepared 1 hour before the assay and filtered through Filtropur S 0.2 filters (Sarstedt). Cell media with test compounds was discarded and 100 μL of MTT solution was added to cells. The plates were incubated for 2 hours at +37° C. Thereafter, the MTT solution was removed and 100 μL of isopropanol was added to dissolve sediment. Absorption at 570 and 650 nm was measured using Hidex Sense microplate reader.

Nrf-2 = Nrf-2 Activation Assay (Nrf-2 Assay); format: cell-based, human; conditions: for activation of Nrf-2 pathway, in words: FIG. 7; for Nrf-2 Assay: Table 7, 1 μM compound, 24 hours, qPCR of Nrf-2 responsive genes
Procedure: This assay was developed internally and was designed to determine if the novel test compounds disclosed herein active Nrf-2 and thereby promote resolution of inflammation by the mechanism believed to be responsible for the activity of omaveloxolone.
Briefly, GM03665 Friedreich Ataxia patient fibroblasts were grown in 12 Well Plates (TC Cell+F) (Sarstedt, Numbrecht Germany), at a density of […] in DMEM/F12 (Gibco, ThermoFisher Scientific, Waltham, MA, USA) cell media supplemented with 10% FBS and 1% Pen/Strep. Cells were left to rest overnight at 37° C. in a humidified atmosphere with 5% CO2 to allow attachment of the cells to the culture plate. Before continuing assay visual inspection of each well was done by light microscopy to detect any possible bacterial and fungal contamination. […] After incubation, cell media was removed and total RNA from the cells was isolated using E.Z.N.A.® Total RNA Kit I (Omega Bio-tek, Norcross, Georgia, USA) spin columns, and first-strand cDNA synthesis was carried out using a High Capacity cDNA Reverse Transcription Kit (Applied Biosystems™, Foster City, CA) following the manufacturer's instructions. qPCR analysis of gene expression was performed by mixing SYBR® Green Master Mix (Applied Biosystems™) with synthesized cDNA and forward and reverse primers. […] (60 cycles), and 95° C. for 60 seconds, followed by melt curve analysis at 72-95° C., 0.3° C./sec. The relative expression levels for each gene were calculated with the ΔΔCt method and normalized to the expression of REEP5 and SNRPD3 genes.

lipoxygenase-15 enzyme = lipoxygenase-15 enzyme (Glycine max (Soybean) (Glycine hispida), UniProt P08170); test: Lipoxygenase-15 Assay (LO-15 Assay); conditions: reduced form of compounds

Row | Molecule | Rotenone Oxygraph Assay % Increase (HepG2 cells) | activity in both the BSO Assay and the Rotenone ATP Assay, in words [1] | Complex I by-pass activity / restoring ATP production, in words [1] | activity in BSO assay (protection from BSO induced cell death), in words [2] | activity in RSL3 assay (protection from RSL3 induced ferroptosis), in words (GM03665 cells) | EC50 (GM03665 cells; Table 3, 2 μM RSL3, 24 hours, MTT, mean of at least three measurements, unit printed in Table 7, read-out: RSL3 Assay EC50, Mean) [µM] | EC50 (GM03665 cells; Table 7, 2 μM RSL3, 24 hours, MTT, read-out: RSL3 Assay EC50) [µM] | activation of Nrf-2 pathway, in words (Nrf-2) | Nrf-2 Assay (Nrf-2) | EC50 ([1]; ATP bioluminescence, read-out: EC50 Rotenone ATP Assay) [µM] | EC50 ([1]; Table 7, read-out: Rotenone ATP Assay EC50) [µM] | activity in LO-15 assay, in words (lipoxygenase-15 enzyme) | EC50 ([2]; Table 7, FA patient fibroblasts, read-out: BSO Assay) [nM] | activity in Rotenone Oxygraph Assay, in words (HepG2 cells) | Percent increase in ATP (Rotenone Oxygraph Assay), Mean (HepG2 cells) | EC50 ([1]; Homo sapiens, 1 h, ATP bioluminescence, read-out: EC50 Rotenone ATP Assay) [µM] | Rotenone ATP Assay EC50, nM ([1]; Table 7) | EC50 ([2]; Homo sapiens, Fibroblast, FA patient fibroblasts pretreated with compound, read-out: EC50 (nM) BSO Assay) [nM] | RSL3 Assay EC50, Mean (GM03665 cells; Table 3, 2 μM RSL3, 24 hours, MTT, mean of at least three measurements, unit printed in Table 7) | RSL3 Assay EC50, nM (GM03665 cells; Table 7, 2 μM RSL3, 24 hours, MTT)
1 | COC1=C(OC)C(=O)C(CCCCCCCCCCO)=C(C)C1=O [Idebenone] | 70.2 +/− 15% | do not possess both activities; also recorded: none of them are active in both assays | ability to restore ATP production when Complex I is inhibited; also recorded: active | very weakly active/borderline inactive | – | – | – | – | – | – | – | – | – | – | – | – | – | – | – | –
2 | (R)-2-(3-hydroxy-3-methyl-4-(3-(trimethylsilyl)propoxy)butyl)-3,5,6-trimethylcyclohexa-2,5-diene-1,4-dione [Compound M] | 56.6 +/− 11.3% | – | active | able to prevent ferroptotic cell death; also recorded: active | active; also recorded: able to prevent ferroptotic cell death | 0.0412 | 0.0412 | do not activate | Inactive | 1 to 3 | 1.34 | best result; also recorded: effective inhibitors | 61.2 | – | – | – | – | – | – | –
3 | CC1=C(C)C(=O)C(CC[C@](C)(O)CCCCCCCCC(F)(F)F)=C(C)C1=O [Compound N, (R)-2,3,5-trimethyl-6-(12,12,12-trifluoro-3-hydroxy-3-methyldodecyl)cyclo-hexa-2,5-diene-1,4-dione] | 44.8 +/− 10.3% | possess both activities | active | able to prevent ferroptotic cell death; also recorded: active | active; also recorded: able to prevent ferroptotic cell death | – | – | do not activate | Inactive | – | – | active; also recorded: effective inhibitors | – | – | – | – | – | – | – | –
4 | CC(C)=CCC/C(C)=C/CC/C(C)=C/CC[C@@](C)(O)CCC1=C(C)C(=O)C(C)=C(C)C1=O (stereo in doubt) [Vatiquinone, reference compound] | Inactive | do not possess both activities; also recorded: none of them are active in both assays | not | ability to circumvent BSO induced cell death; also recorded: active | active | – | – | – | – | – | – | – | – | inactive | Inactive | > 3 | Inactive | < 100 | – | –
5 | Cc1c(C)c2c(c(C)c1O)CC[C@@](C)(CCC=C(F)F)O2 [Compound 67, (R)-2-(4,4-difluorobut-3-en-1-yl)-2,5,7,8-tetramethylchroman-6-ol] | – | possess both activities | – | – | – | – | – | – | – | – | – | – | – | – | – | – | – | – | – | –
6 | CC1(C)CC[C@]2(NC(=O)C(C)(F)F)CC[C@]3(C)[C@H](C(=O)C=C4[C@@]5(C)C=C(C#N)C(=O)C(C)(C)[C@@H]5CC[C@]43C)[C@@H]2C1 [Omaveloxolone, reference compound] | Inactive | do not possess both activities; also recorded: none of them are active in both assays | not | ability to circumvent BSO induced cell death; also recorded: displayed anti-ferroptotic activity; also recorded: active | – | – | – | positive and does | Active | – | – | – | – | inactive | Inactive | – | Inactive | – | Inactive | Inactive
